PMC12737022, “Evaluations of Sex Differences in Dosimetry in Rats Following Perfluorohexanesulfonamide (PFHxSA) Oral Exposure” (Toxics, 2025)
In brackets after ≈: the same amount, converted by molar mass. Several values for one entry are separate records, joined by “and”; a condition that tells them apart may be missing. Equal entries are not always repeated. Where two headings read alike, the source gives them in different places.

Legend:
[1] = Liver-to-plasma partitioning (Kp); assay type: in vivo, rat; details: male, Sprague Dawley (Crl:CD(SD)), rat, po
Experimental: Liver-to-plasma partitioning (Kp) for PFHxSA was assessed for each sex (SI Text S8, Table 6). There were no sex differences in PFHxSA Kp values. […] Refer to SI Table S15 for Kp results for individual rats. […]
Text S8 Liver-to-Plasma Partitioning Coefficient Calculation
Concentrations (µM) of PFHxSA in liver and plasma were used to calculate experimental liver-to-
plasma (Kp) partitioning values for both sexes across all dose levels using Equation E.
(E) K ௣ = Concentration௢௥௚௔௡Concentration௣௟௔௦௠௔

[2] = Solubility and stability of PFHxSA corn oil dosing solutions; assay type: physicochemical; details: for Replicate percent recoveries, Day 5 / Replicate percent recoveries, Day 7 / Replicate percent recoveries, Day 14: relative to Day 0
Experimental: The stability of PFHxSA corn oil dosing solutions was also evaluated up to 14 days. PFHxSA solutions were prepared using the same lot number of the chemical as was used in Mutlu et al.. Solutions were prepared under an inert atmosphere at a 20,000 µg/mL (20 mg/mL) high-dose solution and a 2 µg/mL ([…]) low-dose solution to mimic the range of concentrations of the dosing formulations used for the in vivo study. Each batch included an MB and an LCS prepared from blank corn oil as QC. The solutions were split into two aliquots each. One aliquot was stored at 4 °C; the other aliquot was stored at room temperature, with both protected from light. The stability samples were analyzed in triplicate on Days 0, 5, 7, and 14 using the same extraction method and LC/MS/MS conditions outlined in SI Texts S2 and S3, respectively. Stability was assessed by using mean peak areas to calculate the percent recovery for each day of analysis relative to Day 0. Information on percent recovery calculation and additional experimental details concerning the stability study may be found in SI Text S2.
Text S1 Solvents and Additives for Analytical Chemistry
Solvents used for sample preparation and mobile phases include methanol (MeOH), water (H2O), and acetonitrile (ACN), which were LC/MS-grade and purchased from Honeywell Burdick & Jackson (Charlotte, NC, USA). Ammonium formate (BioUltra purity) and ammonium acetate (99% pure) were used as mobile phase additives and obtained from Millipore Sigma (St. Louis, MO, USA). Formic acid (FA; 97.5% pure) was also used as an additive; it was purchased from Honeywell Fluka. Detailed information for chemicals used for each analysis may be found in Table S1.
Text S2 Dosing-Solution Determination and Stability Assessment
Dosing solutions were extracted by liquid–liquid extraction using 50 uL aliquots of the dosing solutions and 950 uL of 0.1M formic acid in acetonitrile, vortexing the mixture at 2000 rpm, and centrifuging at 5400 × g for 10 minutes. The supernatants were drawn off and added to Waters Oasis Prime HLB 3cc 60mg (Waters, Milford, MA, USA) solid phase extraction (SPE) cartridges. Supernatants were allowed to elute through the cartridge via gravity. Finally, 100 uL of eluent was diluted using 100 uL of 1% formic acid in water. Extracts were further diluted with the extracted method blank (corn oil) to bring the concentrations to within the calibration range. Sample extracts were analyzed using the same LC/MS/MS method outlined for PFHxSA plasma and liver in Text S4. Samples were quantitated against a matrix-matched calibration curve containing a minimum of 5 points spanning 50-500 ng/mL in extract. […]
verification (CCV) sample and laboratory control sample (LCS) were injected at the start and end of each analytical batch to confirm the validity of the calibration curve and sample quantitation. Acceptance criteria for the CCV and LCS were readback concentrations ± 30% of nominal concentration. The method blank acceptance criterion was a readback concentration of PFHxSA < 0.5x the limit of quantitation (LOQ) of the method. The LOQ was 50 ng/mL in the extract. Samples were injected in sequential order (e.g., r01, r02, r03, …, etc.); no duplicate injections of samples were performed.
Assessment of the stability of PFHxSA in corn oil was conducted using the same extraction method as for dosing solutions. Analysis of PFHxSA in corn oil was conducted using the same LC/MS/MS conditions as PFHxSA dosimetry in plasma and liver (Text S4). The average ratio of PFHxSA peak area to PFOSA internal standard peak area for three replicate injections was divided by the average ratio for Day 0 to derive the percentage of recovery for a given day. No calibration curve was generated for the Stability Assessment. For quality control, the extraction blank needed to have a PFHxSA signal that was ≤ 10% the peak area of PFHxSA on Day 0; the daily LCS was acceptable with a PFHxSA/PFOSA area ratio within 30% of the Day 0 LCS. […]

[3] = system: rats; details: cited from earlier work

NS(=O)(=O)C(F)(F)C(F)(F)C(F)(F)C(F)(F)C(F)(F)C(F)(F)F [PFHxSA, Perfluorohexanesulfonamide]
Kp at 120 h ([1]; liver and plasma, 3 mg/kg/day, PFHxSA 3 mg/kg/day oral 5 days, male rats, mean ± SD, read-out: PFHxSA liver-to-plasma Kp, Male Rats): 0.186 ± 0.058
Kp at 120 h ([1]; liver and plasma, 10 mg/kg/day, PFHxSA 10 mg/kg/day oral 5 days, male rats, mean ± SD, read-out: PFHxSA liver-to-plasma Kp, Male Rats): 0.189 ± 0.041
Kp at 120 h ([1]; liver and plasma, 10 mg/kg/day, PFHxSA 10 mg/kg/day oral 5 days, individual rats, read-out: Male Partition Coefficient (Kp), liver-plasma): 0.191
Kp at 120 h ([1]; liver and plasma, 30 mg/kg/day, PFHxSA 30 mg/kg/day oral 5 days, male rats, mean ± SD, read-out: PFHxSA liver-to-plasma Kp, Male Rats): 0.144 ± 0.0075
Kp at 120 h ([1]; liver and plasma, 30 mg/kg/day, PFHxSA 30 mg/kg/day oral 5 days, individual rats, read-out: Male Partition Coefficient (Kp), liver-plasma): 0.156
Kp at 120 h ([1]; liver and plasma, 100 mg/kg/day, PFHxSA 100 mg/kg/day oral 5 days, male rats, mean ± SD, read-out: PFHxSA liver-to-plasma Kp, Male Rats): 0.403 ± 0.23
Kp at 120 h ([1]; liver/plasma, 0.1 mg/kg/day, PFHxSA 0.1 mg/kg/day oral 5 days, male rats, mean ± SD, read-out: PFHxSA liver-to-plasma Kp, Male Rats): 0.604 ± 0.22
Kp at 120 h ([1]; liver/plasma, 0.3 mg/kg/day, PFHxSA 0.3 mg/kg/day oral 5 days, male rats, mean ± SD, read-out: PFHxSA liver-to-plasma Kp, Male Rats): 0.256 ± 0.088
Stability of corn oil solutions ([2]; 2 µg/mL to 20,000 µg/mL, within ±30% of the initial value, up to 14 days, room and refrigerated (4 °C) temperatures): stable
MeanD14 (mean of percent recoveries for Day 14 replicates) ([2]; corn oil 2 µg/mL, 4 °C): 79.3%
Replicate percent recoveries, Day 5 ([2]; corn oil 2 µg/mL, 4 °C): 90.8% and 94.3% and 97.9%
Replicate percent recoveries, Day 7 ([2]; corn oil 2 µg/mL, 4 °C): 78.3% and 79.5% and 79.3%
Replicate percent recoveries, Day 14 ([2]; corn oil 2 µg/mL, 4 °C): 77.3% and 77.6% and 83.0%
MeanD14 (mean of percent recoveries for Day 14 replicates) ([2]; corn oil 2 µg/mL, RT): 97.3%
Replicate percent recoveries, Day 5 ([2]; corn oil 2 µg/mL, RT): 97.4% and 96.8% and 96.1%
Replicate percent recoveries, Day 7 ([2]; corn oil 2 µg/mL, RT): 81.3% and 85.5% and 80.6%
Replicate percent recoveries, Day 14 ([2]; corn oil 2 µg/mL, RT): 97.0% and 93.3% and 102%
MeanD14 (mean of percent recoveries for Day 14 replicates) ([2]; corn oil 20,000 µg/mL, 4 °C): 128%
Replicate percent recoveries, Day 5 ([2]; corn oil 20,000 µg/mL, 4 °C): 110% (2×) and 119%
Replicate percent recoveries, Day 7 ([2]; corn oil 20,000 µg/mL, 4 °C): 119% and 118% and 116%
Replicate percent recoveries, Day 14 ([2]; corn oil 20,000 µg/mL, 4 °C): 130% and 126% and 128%
MeanD14 (mean of percent recoveries for Day 14 replicates) ([2]; corn oil 20,000 µg/mL, RT): 88.6%
Replicate percent recoveries, Day 5 ([2]; corn oil 20,000 µg/mL, RT): 97.3% and 103% and 98.1%
Replicate percent recoveries, Day 7 ([2]; corn oil 20,000 µg/mL, RT): 90.1% and 94.3% and 88.4%
Replicate percent recoveries, Day 14 ([2]; corn oil 20,000 µg/mL, RT): 88.0% and 87.2% and 90.5%
solubility ([2]; corn oil, oil or lipid): 20 mg/mL (≈ 50.1 mM)
Doses at which transcriptional pathway changes are observed in multiple tissues [3]: less than 1 mg/kg/day
Benchmark dose for relative liver weight changes ([3]; rats, ref Auerbach et al. [40]): 16.25 mg/kg/day
Exposures at which mortality was observed in a 5-day study ([3]; ref Auerbach et al. [40]): above 100 mg/kg/d
